The values below come from ChEMBL document CHEMBL3421558, “Structure activity relationship of substituted 1,5-naphthyridine analogs of oxabicyclooctane-linked novel bacterial topoisomerase inhibitors as broad-spectrum antibacterial agents (Part-4)” (Bioorg Med Chem Lett, 2015).

Assay [1] concerns Staphylococcus aureus. Briefly: Antimicrobial activity against methicillin-resistant Staphylococcus aureus OIT971 by micro broth dilution or agar based method. In kind it is functional.
The next assay deals with Escherichia coli. Briefly: Antimicrobial activity against Escherichia coli ATCC 25922 by micro broth dilution or agar based method. As to conditions: Escherichia coli, ATCC 25922; read-out: MIC. The format is functional.
In assay [2] the test system is Staphylococcus aureus. As to the kind of experiment: Antimicrobial activity against Staphylococcus aureus Smith by micro broth dilution or agar based method. The format is functional.
Another assay deals with Enterococcus faecium. Briefly: Antimicrobial activity against VanA expressing vancomycin-resistant Enterococcus faecium by micro broth dilution or agar based method. The format is functional. As to conditions: Enterococcus faecium; read-out: MIC.
Another assay concerns Acinetobacter baumannii. Briefly: Antimicrobial activity against Acinetobacter baumannii IID876 by micro broth dilution or agar based method. The format is functional. As to conditions: Acinetobacter baumannii, IID876; read-out: MIC.
The subject of the next assay is Pseudomonas aeruginosa. Briefly: Antimicrobial activity against Pseudomonas aeruginosa PAO1 by micro broth dilution or agar based method. In kind it is functional. As to conditions: Pseudomonas aeruginosa, PAO1; read-out: MIC.
Another assay has as its system Streptococcus pneumoniae. Briefly: Antimicrobial activity against Streptococcus pneumoniae IID553 by micro broth dilution or agar based method. As to conditions: Streptococcus pneumoniae, IID553; read-out: MIC. The format is functional.
Assay [3] has as its system Staphylococcus aureus. Briefly: Potency index, ratio of MIC for quinolone-resistant Staphylococcus aureus MS5935 to MIC for quinolone-[…]. The format is functional.
Assay [4] concerns the target Voltage-gated inwardly rectifying potassium channel KCNH2 (Homo sapiens, UniProt Q12809). Briefly: Inhibition of MK499 binding to human ERG.
Where [5] appears, read: Staphylococcus aureus, Smith, read-out: MIC.

In brackets after ≈: the same amount, converted by molar mass.

Chain of Voltage-gated inwardly rectifying potassium channel KCNH2 (Q12809 whole entry): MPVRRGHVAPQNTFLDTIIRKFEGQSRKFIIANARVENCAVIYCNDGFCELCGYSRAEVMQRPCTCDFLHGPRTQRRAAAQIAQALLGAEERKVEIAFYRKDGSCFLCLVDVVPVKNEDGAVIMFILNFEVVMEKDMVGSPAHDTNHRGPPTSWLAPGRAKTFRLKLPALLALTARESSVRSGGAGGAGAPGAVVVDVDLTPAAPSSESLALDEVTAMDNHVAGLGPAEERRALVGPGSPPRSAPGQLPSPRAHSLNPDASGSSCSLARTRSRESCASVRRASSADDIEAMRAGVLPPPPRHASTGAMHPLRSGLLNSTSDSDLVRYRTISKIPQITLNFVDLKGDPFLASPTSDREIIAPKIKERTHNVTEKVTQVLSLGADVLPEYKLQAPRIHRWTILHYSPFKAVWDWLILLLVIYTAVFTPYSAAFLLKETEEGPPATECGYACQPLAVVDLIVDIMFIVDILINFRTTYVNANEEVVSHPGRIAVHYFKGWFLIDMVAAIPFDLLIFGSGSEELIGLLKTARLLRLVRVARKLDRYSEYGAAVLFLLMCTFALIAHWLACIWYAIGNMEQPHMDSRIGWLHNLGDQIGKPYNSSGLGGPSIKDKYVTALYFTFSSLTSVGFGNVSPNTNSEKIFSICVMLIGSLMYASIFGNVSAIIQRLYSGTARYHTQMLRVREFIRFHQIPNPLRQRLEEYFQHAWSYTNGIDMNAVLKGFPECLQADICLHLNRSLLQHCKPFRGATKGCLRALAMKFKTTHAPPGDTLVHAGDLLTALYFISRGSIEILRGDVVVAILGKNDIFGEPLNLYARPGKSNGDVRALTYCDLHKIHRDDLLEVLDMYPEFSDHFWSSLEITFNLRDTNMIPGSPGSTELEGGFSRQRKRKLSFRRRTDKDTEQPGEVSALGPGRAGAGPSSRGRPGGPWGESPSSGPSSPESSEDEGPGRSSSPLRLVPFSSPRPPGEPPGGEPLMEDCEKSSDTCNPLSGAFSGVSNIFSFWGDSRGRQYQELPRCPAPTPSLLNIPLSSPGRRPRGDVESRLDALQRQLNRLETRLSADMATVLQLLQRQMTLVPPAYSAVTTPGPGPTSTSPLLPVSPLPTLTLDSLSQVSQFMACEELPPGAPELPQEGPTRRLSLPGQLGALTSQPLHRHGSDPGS

For the compound `Nc1ccc2ncc(F)c(CCC34CCC(NCc5ccc6c(n5)NC(=O)CO6)(CC3)CO4)c2n1`, the minimal inhibitory concentration (MIC) in the assay on Staphylococcus aureus [1] worked out at 1 µg/mL (≈ 2.09 µM); in the assay with Escherichia coli, 8 µg/mL (≈ 16.7 µM); in the assay with Staphylococcus aureus [2] (setting [5]), 2 µg/mL (≈ 4.18 µM); in the assay with Enterococcus faecium, 8 µg/mL (≈ 16.7 µM); in the assay with Acinetobacter baumannii it was 2 µg/mL (≈ 4.18 µM); in the assay with Pseudomonas aeruginosa, 16 µg/mL (≈ 33.4 µM). Besides, the MIC with Streptococcus pneumoniae amounted to 16 µg/mL (≈ 33.4 µM).
In the case of `CN(C)c1ccc2ncc(F)c(CCC34CCC(NCc5ccc6c(n5)NC(=O)CO6)(CC3)CO4)c2n1`, the MIC was determined as 0.25 µg/mL (≈ 0.494 µM) against Staphylococcus aureus [1]; 8 µg/mL (≈ 15.8 µM) in the assay on Escherichia coli; 0.25 µg/mL (≈ 0.494 µM) in the assay with Staphylococcus aureus [2] (setting [5]); 4 µg/mL (≈ 7.9 µM) in the assay with Enterococcus faecium; 8 µg/mL (≈ 15.8 µM) in the assay on Acinetobacter baumannii; 8 µg/mL (≈ 15.8 µM) in the assay on Pseudomonas aeruginosa. Also, the MIC in the assay with Streptococcus pneumoniae is 2 µg/mL (≈ 3.95 µM).
Turning to `O=C1COc2ccc(CNC34CCC(CCc5c(F)cnc6ccc(N7CCS(=O)(=O)CC7)nc56)(CC3)OC4)nc2N1`, the MIC against Staphylococcus aureus [1] was 1 µg/mL (≈ 1.68 µM); with Escherichia coli, 16 µg/mL (≈ 26.8 µM); with Staphylococcus aureus [2] (setting [5]) it was 1 µg/mL (≈ 1.68 µM); in the assay with Enterococcus faecium, 16 µg/mL (≈ 26.8 µM); in the assay on Acinetobacter baumannii it was 16 µg/mL (≈ 26.8 µM); with Pseudomonas aeruginosa it was 16 µg/mL (≈ 26.8 µM). Besides, the MIC in the assay with Streptococcus pneumoniae is 4 µg/mL (≈ 6.7 µM). Moreover, the Ratio with Staphylococcus aureus [3] is on record as under 4.
Regarding `COc1nc2c(CCC34CCC(NCc5ccc6c(n5)NC(=O)CO6)(CC3)CO4)c(F)cnc2cc1F`, the minimal inhibitory concentration (MIC) was found to be 0.016 µg/mL (≈ 0.0313 µM) against Staphylococcus aureus [1]; 4 µg/mL (≈ 7.82 µM) in the assay on Escherichia coli; 0.031 µg/mL (≈ 0.0606 µM) in the assay on Staphylococcus aureus [2] (setting [5]); 2 µg/mL (≈ 3.91 µM) with Enterococcus faecium; 1 µg/mL (≈ 1.95 µM) in the assay on Acinetobacter baumannii; 8 µg/mL (≈ 15.6 µM) with Pseudomonas aeruginosa. Also, in the assay with Streptococcus pneumoniae, the minimal inhibitory concentration (MIC) was 0.25 µg/mL (≈ 0.489 µM).
With `COc1cc(C)c2ncc(F)c(CCC34CCC(NCc5ccc6c(n5)NC(=O)CO6)(CC3)CO4)c2n1`, the MIC with Staphylococcus aureus [1] was determined as 0.008 µg/mL (≈ 0.0158 µM); in the assay on Escherichia coli, 4 µg/mL (≈ 7.88 µM); with Staphylococcus aureus [2] (setting [5]), 0.016 µg/mL (≈ 0.0315 µM); in the assay with Enterococcus faecium, 2 µg/mL (≈ 3.94 µM); in the assay on Acinetobacter baumannii, 2 µg/mL (≈ 3.94 µM); in the assay with Pseudomonas aeruginosa, 16 µg/mL (≈ 31.5 µM). Further, the MIC with Streptococcus pneumoniae was determined as 0.25 µg/mL (≈ 0.493 µM).
On to `COc1ccc2nc(N3CCNCC3)c(F)c(CCC34CCC(NCc5ccc6c(n5)NC(=O)CO6)(CC3)CO4)c2n1`, for which the MIC in the assay with Staphylococcus aureus [1], in the assay with Escherichia coli, with Staphylococcus aureus [2] (setting [5]), in the assay with Enterococcus faecium, in the assay with Acinetobacter baumannii and with Pseudomonas aeruginosa was 8 µg/mL (≈ 13.8 µM) each time. For the same compound, the MIC in the assay with Streptococcus pneumoniae was found to be 8 µg/mL (≈ 13.8 µM). Further, the Ratio in the assay on Staphylococcus aureus [3] is under 4.
Consider `COc1ccc2nc(N3CCN(C)CC3)c(F)c(CCC34CCC(NCc5ccc6c(n5)NC(=O)CO6)(CC3)CO4)c2n1`, for which the MIC was determined as 16 µg/mL (≈ 27 µM) with Staphylococcus aureus [1]; 32 µg/mL (≈ 54.1 µM) in the assay with Escherichia coli; 32 µg/mL (≈ 54.1 µM) with Staphylococcus aureus [2] (setting [5]); 32 µg/mL (≈ 54.1 µM) in the assay with Enterococcus faecium; 32 µg/mL (≈ 54.1 µM) in the assay with Acinetobacter baumannii; 32 µg/mL (≈ 54.1 µM) with Pseudomonas aeruginosa. Besides, the MIC with Streptococcus pneumoniae came out at 32 µg/mL (≈ 54.1 µM). Moreover, the Ratio in the assay with Staphylococcus aureus [3] was under 4.
With `COc1nc2c(CCC34CCC(NCc5ccc6c(n5)NC(=O)CO6)(CC3)CO4)c(F)cnc2cc1C(F)(F)F`, the MIC in the assay on Staphylococcus aureus [1], with Escherichia coli, with Staphylococcus aureus [2] (setting [5]), with Enterococcus faecium, in the assay on Acinetobacter baumannii and in the assay with Pseudomonas aeruginosa was 8 µg/mL (≈ 14.2 µM) throughout. Further, the MIC in the assay on Streptococcus pneumoniae was 8 µg/mL (≈ 14.2 µM).
On to `O=C1COc2ccc(CNC34CCC(CCc5c(F)cnc6cc(C(F)(F)F)cnc56)(CC3)OC4)nc2N1`, for which the MIC with Staphylococcus aureus [1], with Escherichia coli, in the assay on Staphylococcus aureus [2] (setting [5]), in the assay on Enterococcus faecium, in the assay on Acinetobacter baumannii and in the assay with Pseudomonas aeruginosa was 16 µg/mL (≈ 30.1 µM) each time. Moreover, the MIC in the assay on Streptococcus pneumoniae worked out at 16 µg/mL (≈ 30.1 µM).
With `CN(C)c1cnc2c(CCC34CCC(NCc5ccc6c(n5)NC(=O)CO6)(CC3)CO4)c(F)cnc2c1`, the MIC against Staphylococcus aureus [1], in the assay on Escherichia coli, in the assay on Staphylococcus aureus [2] (setting [5]), in the assay on Enterococcus faecium, in the assay with Acinetobacter baumannii and in the assay on Pseudomonas aeruginosa was 16 µg/mL (≈ 31.6 µM) throughout. In addition, the MIC in the assay on Streptococcus pneumoniae was 16 µg/mL (≈ 31.6 µM). The same compound gave an IC50 in [4] of 18.4 µM. The Ratio in the assay on Staphylococcus aureus [3] was under 4.
Regarding `Cc1cc(S(C)(=O)=O)nc2c(CCC34CCC(NCc5ccc6c(n5)NC(=O)CO6)(CC3)CO4)ccnc12`, the minimal inhibitory concentration (MIC) is 1 µg/mL (≈ 1.86 µM) with Staphylococcus aureus [1]; 32 µg/mL (≈ 59.5 µM) in the assay on Escherichia coli; 1 µg/mL (≈ 1.86 µM) in the assay on Staphylococcus aureus [2] (setting [5]); 16 µg/mL (≈ 29.8 µM) in the assay with Enterococcus faecium; 16 µg/mL (≈ 29.8 µM) with Acinetobacter baumannii; 32 µg/mL (≈ 59.5 µM) in the assay with Pseudomonas aeruginosa. Further, in the assay on Streptococcus pneumoniae, the MIC is 16 µg/mL (≈ 29.8 µM). Moreover, the IC50 in assay [4] stood at 6.71 µM. The Ratio in the assay with Staphylococcus aureus [3] is recorded as under 4.
For `CCOC(=O)c1c(OC)cnc2c(CCC34CCC(NCc5ccc6c(n5)NC(=O)CO6)(CC3)CO4)ccnc12`, the MIC with Staphylococcus aureus [1], in the assay with Escherichia coli, in the assay with Staphylococcus aureus [2] (setting [5]), in the assay with Enterococcus faecium, with Acinetobacter baumannii and in the assay on Pseudomonas aeruginosa was 16 µg/mL (≈ 29.2 µM) throughout. In the assay on Streptococcus pneumoniae, the MIC stood at 16 µg/mL (≈ 29.2 µM). For the same compound, in assay [4], the IC50 is 7.87 µM. In the assay with Staphylococcus aureus [3], the Ratio is reported as under 4.
On to `COc1ccc2ncc(C#N)c(CC(O)C34CCC(NCc5ccc6c(n5)NC(=O)CO6)(CC3)CO4)c2n1` (stereo in doubt; 88), for which the MIC against Staphylococcus aureus [1] turned out to be 0.031 µg/mL (≈ 0.06 µM); with Escherichia coli it was 4 µg/mL (≈ 7.74 µM); in the assay with Staphylococcus aureus [2], 0.031 µg/mL (≈ 0.06 µM); in the assay with Enterococcus faecium it was 1 µg/mL (≈ 1.94 µM); with Acinetobacter baumannii, 0.5 µg/mL (≈ 0.968 µM); in the assay on Pseudomonas aeruginosa it was 8 µg/mL (≈ 15.5 µM). Moreover, the MIC with Streptococcus pneumoniae stood at 0.25 µg/mL (≈ 0.484 µM).
